The text below walks through data of patent US5436273A, “Psychoactive propargylamine derivatives used in the treatment of anxiety, psychotic states or aggression” (Lowchol Scientific, Inc., priority 1993, dated 1995).

Like-named read-outs stand apart in the source and are kept apart here.

Data set [1] deals with righting reflex / ethanol narcosis in mice. The data set is described as follows: Potentiation of sleeping time induced by ethanol in mice. The format is in vivo, CD #1 mice. To be noted: 5 mg/kg i.p., with ethanol. The method, then:
7. Potentiation of Sleeping Time Induced by Ethanol in Mice
This test was done with male CD #1 mice of 25-35 g. The mice are injected intraperitoneally (8 mice per dose). A subhypnotic dose of ethanol (12 ml/kg of 50% ethanol solution) is administered orally 30 minutes later.
The loss of the righting reflex is evaluated, for each animal, 30 minutes after the administration of the alcohol. It is considered that there is a potentialization of ethanol narcosis if the righting time exceeded 30 seconds.
The results which are reported in Table 7 are expressed in terms of the percentage of animals displaying a loss of the righting reflex versus the administered dose. Chlorpromazine (5 mg/kg i.p.) is used as a standard.

A further data set can be described thus: Acute toxicity test. To be noted: mouse, in vivo, ip. The method, then:
CD #1 mice (20-30 g) are used for this test. The animals are individualy housed in glass beakers for a 2 hour period of acclimatization without food and water.

In data set [2] the test system is isolation induced aggressive behavior in mice. Briefly: Inhibition of isolation induced fighting behavior in mice. To be noted: for ED50: Mus musculus, ip, 0.5 h, read-out: ED50 (dose that suppressed aggressive behavior in 50% of the animals); for inhibition of aggressive behavior (in words): mice. The data set is classed as in vivo, CD #1 mice. The method, then:
1. Inhibition of Isolation Induced Fighting Behavior in Mice
After this period of confinement, the animals usually develop a marked intraspecific aggressive behavior when they are placed in the same cage.
The compound to be studied is administered i.p. to the selected groups (N=8 pairs/dose×5 doses) and the aggressive behavior is tested again 30 minutes later. […] A one week washout period is allowed between treatments.

A further data set is described as follows: in vivo. To be noted: mouse, ip.
A short description of data set [3]: Rotarod neurotoxicity test in mice. As to conditions: mouse, in vivo, ip. (In general: In the rotarod test animals must keep their balance on a rotating rod.)
Data set [4] concerns exploratory behavior in rats. Briefly: Inhibition of exploratory behavior in rats (hole poking). The format is in vivo, Sprague-Dawley rats. As to conditions: Rattus norvegicus, ip, 0.5 h, read-out: dose required to diminish by 50% the exploratory behavior. The method, then: 8. Inhibition of Exploratory Behavior in Rats (Hole Poking).
This test is done with Sprague-Dawley male rats of about 300 g. Activity is evaluated with a […] XYZ activity cage connected to a […] […] DCM-4. A perforated plate (16 holes of 2-5 cm diameter) is placed in the enclosure and on the activity case to register vertical activity. The number of times the rat placed his snout into the holes during a 10 minute period is recorded. The test was started 30 minutes after the interperitoneal injection of the compound to be studied.
The results which are reported in Table 8 are expressed in terms of the dose required to diminish by 50% the exploratory behavior, with reference to animals injected with the carrier only. Diazepam and buspirone are used as standards.

Data set [5] relates to conditioned avoidance response in rats. Briefly: Inhibition of conditioned avoidance response in rats. The format is in vivo, Sprague Dawley rats. To be noted: 5 mg/kg i.p. The source says: 6. Inhibition of Conditioned Avoidance Response in Rats
Male Sprague Dawley rats (200-250 g) are trained to avoid an electric foot shock, by continuously changing room with the appropriate visuals and auditory signals, in an automatic 2-way conditioned avoidance apparatus (Coulbourn Instrument Co.). Only the animals that perform at least a 70% avoidance (3 successive training sessions) are kept for the experiment.
The day of the experiment, the selected animals are submitted to a pre-treatment control session. The compound to be studied is then administered i.p. and the animals are placed back in the apparatus for evaluation 30 minutes later. Diazepam was used as a standard.

Setting [6] is: i.p., 30 minutes after administration, probit analysis.

In the case of `CN(C)CCCN1c2ccccc2Sc2ccc(Cl)cc21` [Chlorpromazine, reference compound], the “percentage of animals displaying a loss of the righting reflex” value in data set [1] is 100%.
`CC(N)C#Cc1ccc(Cl)cc1` (centres unmarked) [Compound 1, 2-Amino-4-(p-chlorophenyl)-3-butyne] registered an LD50 in the data set “Acute toxicity test” (probit analysis) of 130 mg/kg. Moreover, the ED50 in data set [2] (setting [6]) is 12 mg/kg. Moreover, in data set [2] (i.p.), the “inhibition of aggressive behavior (in words)” value was “particularly potent inhibitors”. In “in vivo”, this compound registered a TD50 at 0.5 h of roughly 65 mg/kg.
For `CC(N)C#Cc1ccc(C#N)cc1` (centres unmarked) [Compound 2, 2-Amino-4-(p-cyanophenyl)-3-butyne] the same measures were greater than 100 mg/kg, 8 mg/kg, “particularly potent inhibitors” and greater than 100 mg/kg.
On to `CN(CC#Cc1cccc(C(F)(F)F)c1)Cc1ccccc1` [Compound 5], for which the LD50 in “Acute toxicity test” was found to be 416 mg/kg. Further, the ED50 in data set [2] (setting [6]) stood at 28 mg/kg. In “in vivo”, this compound returned a TD50 at 0.5 h of 334 mg/kg.
As for `CC(C#Cc1cccc(C(F)(F)F)c1)N(C)C` (centres unmarked) [Compound 7], the LD50 in the data set “Acute toxicity test” was determined as 220 mg/kg. In data set [2] (setting [6]), the ED50 came out at 38 mg/kg. In the data set “in vivo”, the TD50 at 0.5 h is 153 mg/kg.
In the data set “Acute toxicity test”, `FC(F)(F)c1cccc(C#CCNCCc2ccccc2)c1` [Compound 9] displayed an LD50 of 252 mg/kg. Moreover, the ED50 in data set [2] (setting [6]) came out at 58 mg/kg. Also, in “in vivo”, the TD50 at 0.5 h turned out to be 126 mg/kg.
Turning to `C(#Cc1ccccc1)CN1CCCCC1` [Compound 11], the LD50 in the data set “Acute toxicity test” stood at 188 mg/kg. The ED50 in data set [2] (setting [6]) is 27 mg/kg. In the data set “in vivo”, the TD50 at 0.5 h was 132 mg/kg.
Take `CC(C)NC(C)C#Cc1ccccc1` (centres unmarked) [Compound 13]: the LD50 in “Acute toxicity test” (probit analysis) was determined as 120 mg/kg. In addition, the ED50 in data set [2] (setting [6]) was determined as 27 mg/kg.
For the compound `FC(F)(F)c1cccc(C#CCNc2ccco2)c1` [Compound 15], the LD50 in “Acute toxicity test” was found to be 351 mg/kg. The ED50 in data set [2] (setting [6]) turned out to be 19 mg/kg. In “in vivo”, this compound yielded a TD50 at 0.5 h of 193 mg/kg.
Compound `CC(C#Cc1ccccc1)NCc1ccccc1` (centres unmarked) [Compound 16] showed an LD50 in the data set “Acute toxicity test” of 309 mg/kg. Besides, in data set [2] (setting [6]), the ED50 is 101 mg/kg. In the data set “in vivo”, this compound had a TD50 at 0.5 h of 170 mg/kg.
In the case of `CC(C#Cc1cccc(C(F)(F)F)c1)NCc1ccccc1` (centres unmarked) [Compound 17], in “Acute toxicity test”, the LD50 was 366 mg/kg. The ED50 in data set [2] (setting [6]) was 50 mg/kg. In addition, in the data set “in vivo”, the TD50 at 0.5 h worked out at 123 mg/kg.
Compound `CC(C#Cc1ccccc1)Nc1ccco1` (centres unmarked) [Compound 18] came in with an LD50 in “Acute toxicity test” (probit analysis) of roughly 300 mg/kg. Also, the ED50 in data set [2] (setting [6]) came to 64 mg/kg.
`CC(C#Cc1cccc(C(F)(F)F)c1)Nc1ccco1` (centres unmarked) [Compound 19]: in data set [2] (setting [6]), the ED50 worked out at 73 mg/kg.
With `CC(N)C#Cc1ccc([N+](=O)[O-])cc1` (centres unmarked) [Compound 20], the LD50 in “Acute toxicity test” came out at 152 mg/kg. Moreover, in data set [2] (setting [6]), the ED50 was determined as 10 mg/kg. The same compound yielded a TD50 at 0.5 h in “in vivo” of roughly 120 mg/kg.
For the compound `CC(N)C#Cc1ccc(C(=O)N(C)C)cc1` (centres unmarked) [Compound 21], the LD50 in the data set “Acute toxicity test” (probit analysis) is less than 100 mg/kg.
Consider `CC(N)C#Cc1ccc(C(N)=O)cc1` (centres unmarked) [Compound 22], for which, in the data set “Acute toxicity test” (probit analysis), the LD50 was greater than 100 mg/kg.
As to `COc1ccc(C#CC(C)N)cc1` (centres unmarked) [Compound 23], in the data set “Acute toxicity test” (probit analysis), the LD50 was greater than 100 mg/kg. Further, the ED50 in data set [2] (setting [6]) stood at 24 mg/kg.
The compound `CC(N)C#Cc1cccc(Cl)c1` (centres unmarked) [Compound 24] came in with an LD50 in the data set “Acute toxicity test” greater than 100 mg/kg. The same compound gave a TD50 at 0.5 h in the data set “in vivo” of 50 mg/kg.
`CCC(N)C#Cc1ccccc1` (centres unmarked) [Compound 25] came in with an LD50 in the data set “Acute toxicity test” of 84 mg/kg. Moreover, in data set [2] (setting [6]), the ED50 was 16 mg/kg. Besides, in “in vivo”, the TD50 at 0.5 h was no less than 84 mg/kg.
With `NCC#Cc1ccccc1` [Compound 26], in “Acute toxicity test” (probit analysis), the LD50 was no less than 100 mg/kg.
Turning to `CCNCC#Cc1ccccc1` [Compound 27], the LD50 in the data set “Acute toxicity test” was found to be 98 mg/kg. Also, the ED50 in data set [2] (setting [6]) was 17 mg/kg. Also, the TD50 at 0.5 h in the data set “in vivo” was 88 mg/kg.
Compound `CC(N)C#Cc1ccccc1` (centres unmarked) [Compound 30] showed an LD50 in “Acute toxicity test” of 66 mg/kg. For the same compound, the ED50 in data set [2] (setting [6]) worked out at 15 mg/kg. In the data set “in vivo”, this compound had a TD50 at 0.5 h of roughly 50 mg/kg.
Compound `CNC(C)C#Cc1ccccc1` (centres unmarked) [Compound 31] came in with an LD50 in “Acute toxicity test” (probit analysis) of 95 mg/kg. The ED50 in data set [2] worked out at 12 mg/kg. This compound also displayed a TD50 at 0.5 h in data set [3] of no less than 95 mg/kg.
Turning to `CCNC(C)C#Cc1ccccc1` (centres unmarked) [Compound 32], in the data set “Acute toxicity test” (probit analysis), the LD50 stood at 120 mg/kg. For the same compound, the ED50 in data set [2] was 23 mg/kg. For the same compound, the TD50 at 0.5 h in data set [3] was no less than 120 mg/kg.
`CCN(CC)C(C)C#Cc1ccccc1` (centres unmarked) [Compound 33] returned an LD50 in the data set “Acute toxicity test” of 88 mg/kg. In addition, the ED50 in data set [2] (setting [6]) is 44 mg/kg. Further, the TD50 at 0.5 h in “in vivo” was no less than 88 mg/kg.
Take `C#CC(C)NC` (centres unmarked) [Compound 34]: the LD50 in the data set “Acute toxicity test” (probit analysis) was 828 mg/kg. For the same compound, the ED50 in data set [2] (setting [6]) was determined as 26 mg/kg.
On to `C#CC(C)N(C)C` (centres unmarked) [Compound 35], for which, in data set [2] (setting [6]), the ED50 amounted to 92 mg/kg.
Consider `C#CC(C)(C)N` [Compound 36], for which, in “Acute toxicity test”, the LD50 is 779 mg/kg. Further, in data set [2] (setting [6]), the ED50 was 176 mg/kg. In the data set “in vivo”, the TD50 at 0.5 h amounted to 391 mg/kg.
For the compound `CN1C(=O)CN=C(c2ccccc2)c2cc(Cl)ccc21` [Diazepam], in data set [4], the ED50 came to 14.2 ± 5 mg/kg. This compound also came in with a conditioned avoidance response in data set [5] of 57.5%.

As usually defined, the LD50 is the dose expected to kill half of the subjects tested. Lower therefore signals greater toxicity.
